Test results reported in article PMC8147293, “Library of Selenocyanate and Diselenide Derivatives as In Vivo Antichagasic Compounds Targeting Trypanosoma cruzi Mitochondrion” (Pharmaceuticals, 2021).

How the values were obtained:
Trypanosoma cruzi [1] = experiment: Anti-T. cruzi IgG (ELISA) and splenomegaly in treated BALB/c mice; type: in vivo
Procedure: Otherwise, the immune status of the mice was evaluated—through the titer of total anti-T. cruzi IgG and the splenomegaly (Figure S1)—since it is a characteristic linked to the parasite load and the effectiveness ascribed to the potential candidates. […].
(§1) All in vivo assays for the evaluation of compounds in the acute and chronic CD (Scheme 1)—monitoring of parasitemia, immunosuppression, PCR [59, 60], ELISA [56], and clinical analysis [56]—were performed as previously described. PCR was based on the Spliced Leader (SL) intergenic region sequence of T. cruzi (for detailed description, see literature reported previously).
Figure S1. A) Anti-Trypanosoma cruzi immunoglobulin G levels, expressed in absorbance at 492 nm, at different days post-infection (dpi) for each group of mice treated during the acute and chronic phases of Chagas disease: control (untreated), benznidazole (BZN), 8, 10 and 15. Blank and uninfected mice are also […]
included. […] Values are the means of three mice ± standard deviation. (IS) immunosuppression. * Significant differences between untreated and treated mice for α =
0.05. B) Weight percentage of spleens in the chronic Chagas disease for each group of mice treated during the acute and chronic phases of the disease: control (untreated), benznidazole (BZN), 8, 10 and 15. Values are the means of three mice ± standard deviation. In brackets: reduction of splenomegaly in comparison to […]
(1 picture or pasted object on this page, not shown here)

Trypanosoma cruzi [2] = experiment: Parasitemia monitoring in infected BALB/c mice, acute Chagas disease; type: in vivo; conditions: oral 20 mg/kg per day for 5 days from 9th dpi, versus untreated
Procedure: (§2) Infection was carried out by intraperitoneal inoculation of 5 × 10^5 BTs of T. cruzi per mouse in 0.2 mL PBS [56]. The mice were treated by oral route (~200 µL) once daily for 5 consecutive days. The treatment for mice treated in the acute and chronic phases began when the infection was confirmed (9th day post-infection (dpi)) and was established that the animals had entered the chronic phase (100th dpi), respectively.
(§3) The mice were divided into six groups (n = 3 per group): 0, negative control group (uninfected and untreated mice); I, positive control group (infected and untreated mice); II, BZN group (mice infected and treated with BZN); III, 8 group (mice infected and treated with 8); IV, 10 group (mice infected and treated with 10); V, 15 group (mice infected and treated with 15). The tested compounds and BZN were prepared at 2 mg·mL^−1 in an aqueous suspension vehicle containing 5% (v/v) DMSO and 0.5% (w/v) hydroxypropyl methylcellulose, as previously reported. Therefore, doses of 20 mg·kg^−1 per day were administered for 5 consecutive days, and vehicle only was administered in the negative and positive control groups.
as §1

[3] = test system: Trypanosoma cruzi intracellular amastigotes; experiment: Screening against intracellular amastigotes in Vero cells (Giemsa counting); type: cell-based
Procedure: Trypanocidal activity against amastigotes was determined according to the literature reported previously. […]. […] Each compound concentration was tested in triplicate in four separate determinations.

Trypanosoma cruzi Fe-SOD = experiment: SOD enzymatic inhibition, Fe-SOD; type: biochemical; conditions: at 100 µM
Procedure: (§4) Excreted Fe-SOD protein—obtained and quantified as previously described [64]—and commercial Cu/Zn-SOD from human erythrocytes (Sigma-Aldrich) were exposed to the tested compounds at a concentration range from 100 to 0.1 µM to determine in vitro activities using the method previously described.

[4] = test system: Trypanosoma cruzi bloodstream trypomastigotes (BTs); experiment: Screening against bloodstream trypomastigotes (resazurin); type: cell-based
Procedure: 2 × 10^6 Bloodstream trypomastigotes (BTs), obtained by cardiac puncture from infected BALB/c mice as previously described, were treated by adding the tested compounds at a concentration range from 50 to 0.1 µM in 96-well microplates (200 µL·well^−1) at 37 °C. After 24 h of treatment, resazurin sodium salt (Sigma-Aldrich) was added to be incubated for further 4 h. Finally, trypanocidal activity was determined following the same procedure as described to assess the trypanocidal activity in the epimastigotes. Each compound concentration was tested in triplicate in three independent experiments.

[5] = type: in vivo; conditions: BALB/c mice, 20 mg/kg per day for 5 days
Procedure: Finally, biochemical analyses were performed to assess the toxicity associated to the treatment of compound 8. Kidney, heart and liver biochemical markers were measured, including values from uninfected and BZN-treated mice (Table S2). […] The low toxicity allows compound 8 to be tested at higher doses, establishing an improved treatment schedule based on pharmacokinetics in order to reach a total parasite clearance.
as §1

[6] = target: T1, human erythrocytes CuZn-SOD (Homo sapiens, UniProt P00441); experiment: SOD enzymatic inhibition, CuZn-SOD; type: biochemical; conditions: 100 to 0.1 µM, read-out: CuZn-SOD IC50 (in brackets)
T1 construct: commercial Cu/Zn-SOD from human erythrocytes (Sigma-Aldrich); purchased Sigma-Aldrich; host or cells: human erythrocytes
T1 sequence (P00441 whole entry): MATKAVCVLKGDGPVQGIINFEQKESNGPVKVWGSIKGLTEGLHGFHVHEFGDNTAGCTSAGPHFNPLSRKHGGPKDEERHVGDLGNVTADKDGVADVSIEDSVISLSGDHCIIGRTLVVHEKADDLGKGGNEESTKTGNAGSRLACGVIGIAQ
Procedure: as §4

Trypanosoma cruzi [7] = experiment: Parasitemia reactivation after immunosuppression in BALB/c mice; type: in vivo; conditions: 20 mg/kg per day for 5 days, compared to untreated mice
Procedure: Secondly, the experimental cure was determined using a double checking widely used in in vivo trypanocidal trials. This double checking—based on immunosuppression and PCR (Figure 2B,C, respectively)—was performed to evaluate the treatment effectiveness and the disease extent in both acute and chronic CD at the end of the in vivo timeline. The mice whose parasitemia and PCR remain negative after immunosuppression are considered cured.
Immunosuppression enhances the reactivation of any residual infection, which is proportional to the parasite survival rate.
as §2, §3, §1

Mammalian Vero cells = experiment: Cytotoxicity test on Vero cells (resazurin); type: cell-based; conditions: Chlorocebus sabaeus, 72 h; Table 1; Vero cells, 48 h + 24 h resazurin; read-out: Toxicity IC50 Vero Cell

**Q.** Which results are given for FC(F)(F)c1ccc(C[Se][Se]Cc2ccc(C(F)(F)F)cc2)cc1 [compound 8]?
**A.** IgG levels in the acute treatment (Trypanosoma cruzi [1]; from the beginning to the end of the in vivo timeline): very low IgG levels; total anti-T. cruzi IgG levels and splenomegaly (Trypanosoma cruzi [1]; treated BALB/c mice versus untreated, excluding IgG levels of chronic CD): significant reduction; parasitemia levels (counting BTs) during the acute CD (Trypanosoma cruzi [2]): trypanocidal activity was even stronger; Selectivity Index Amast. ([3]; IC50 Vero cells/IC50 amastigotes): 55; IC50 ([3]; Trypanosoma cruzi, Table 1, intracellular amastigotes in Vero cells, 72 h, read-out: Activity IC50 Amast.): 800 ± 200 nM; Fe-SOD inhibition (Trypanosoma cruzi Fe-SOD): 100%; Selectivity Index Trypomast. ([4]; IC50 Vero cells/IC50 trypomastigotes): 30; IC50 ([4]; Trypanosoma cruzi, Table 1, bloodstream trypomastigotes, 24 h treatment + 4 h resazurin, read-out: Activity IC50 Trypomast.): 1500 ± 300 nM; death and body mass loss after treatment [5]: none of the mice died nor lost more than 10% body mass; kidney, heart and liver biochemical markers [5]: disturbed 2 days after treatment; IC50 [6]: > 100 µM; reactivation of infection after immunosuppression (Trypanosoma cruzi [7]; mice treated in acute CD): 67%; reactivation of infection after immunosuppression (Trypanosoma cruzi [7]; mice treated in chronic CD): 44%; CC50 (Mammalian Vero cells): 44.3 ± 2.7 µM
